Legend:
Format in all cases: cell-based
Citrobacter diversus = assay: MIC against Gram-negative bacteria: Citrobacter diversus; details: 5×10^5 CFU/mL
In short: (§1)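 Antibacterial activity of purified human EGF domain proteins: two-fold concentration series, triplicate wells, LB broth, 5×10^5 CFU/mL bacteria, 37° C shaking incubation. The lowest concentration without growth defines the MIC.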

Moraxella catarrhalis = assay: MIC against Gram-negative bacteria: Moraxella catarrhalis; details: 5×10^5 CFU/mL
In short: as §1

Pseudomonas aeruginosa = assay: MIC against Gram-negative bacteria: Pseudomonas aeruginosa; details: 5×10^5 CFU/mL
In short: as §1

Enterobacter cloacae = assay: MIC against Gram-negative bacteria: Enterobacter cloacae; details: 5×10^5 CFU/mL
In short: as §1

Aeromonas hydrophila = assay: MIC against Gram-negative bacteria: Aeromonas hydrophila; details: 5×10^5 CFU/mL
In short: as §1

E. coli DH5α = assay: Antibacterial activity: MIC and growth curve against E. coli DH5α in 96-well plate; details: minimal inhibitory concentration against E. coli DH5α; 96-well plate, 5×10^5 CFU/mL, 37° C., judged after 8 h
In short: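 Log-phase DH5α (OD600 about 0.5, 37° C, 185 rpm in LB) was pelleted, resuspended in fresh LB and seeded at 5×10^5 CFU/mL with recombinant protein at 50, 25 and 12.5 μg/mL (two-fold series), in triplicate. Plates were shaken at 175 rpm, 37° C, and OD600 was read every 30 min. MIC was the lowest concentration with no growth.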

Serratia marcescens = assay: MIC against Gram-negative bacteria: Serratia marcescens; details: 5×10^5 CFU/mL
In short: as §1

Proteus mirabilis = assay: MIC against Gram-negative bacteria: Proteus mirabilis; details: 5×10^5 CFU/mL
In short: as §1

Proteus vulgaris = assay: MIC against Gram-negative bacteria: Proteus vulgaris; details: 5×10^5 CFU/mL
In short: as §1

Klebsiella pneumonia = assay: MIC against Gram-negative bacteria: Klebsiella pneumonia; details: 5×10^5 CFU/mL
In short: as §1

E. coli BL21 = assay: MIC against Gram-negative bacteria: E. coli BL21; details: 5×10^5 CFU/mL
In short: as §1

[1] = E. coli BL21, 10 h cultivation at 37° C.
[2] = Citrobacter diversus, 96-well plate, 37° C., 10 h
[3] = Moraxella catarrhalis, 96-well plate, 37° C., 10 h
[4] = Pseudomonas aeruginosa, 96-well plate, 37° C., 10 h
[5] = Enterobacter cloacae, 96-well plate, 37° C., 10 h
[6] = Aeromonas hydrophila, 96-well plate, 37° C., 10 h
[7] = Serratia marcescens, 96-well plate, 37° C., 10 h
[8] = Proteus mirabilis, 96-well plate, 37° C., 10 h
[9] = Proteus vulgaris, 96-well plate, 37° C., 10 h
[10] = Klebsiella pneumonia, 96-well plate, 37° C., 10 h
[11] = E. coli BL21, 96-well plate, 37° C., 10 h
[12] = 10 h cultivation at 37° C., two-fold serial dilution

PRT241 (DTDECQIAGVCQQMCVNYVGGFECYCSEGHELEADGISCS; listed as Homo sapiens)
MIC (μg/mL) C. diversus (Citrobacter diversus; C. diversus, 10 h cultivation at 37° C.): 12.5 µg/mL | MIC (μg/mL) M. catarrhalis (Moraxella catarrhalis; M. catarrhalis, 10 h cultivation at 37° C.): 25 µg/mL | MIC (μg/mL) P. aeruginosa (Pseudomonas aeruginosa; P. aeruginosa, 10 h cultivation at 37° C.): 12.5 µg/mL | MIC (μg/mL) E. cloacae (Enterobacter cloacae; E. cloacae, 10 h cultivation at 37° C.): 12.5 µg/mL | MIC (μg/mL) A. hydrophila (Aeromonas hydrophila; A. hydrophila, 10 h cultivation at 37° C.): 12.5 µg/mL | MIC (E. coli DH5α): 12.5 µg/mL | MIC (μg/mL) S. marcescens (Serratia marcescens; S. marcescens, 10 h cultivation at 37° C.): 50 µg/mL | MIC (μg/mL) P. mirabilis (Proteus mirabilis; P. mirabilis, 10 h cultivation at 37° C.): 12.5 µg/mL | MIC (μg/mL) P. vulgaris (Proteus vulgaris; P. vulgaris, 10 h cultivation at 37° C.): 25 µg/mL | MIC (μg/mL) K. pneumonia (Klebsiella pneumonia; K. pneumonia, 10 h cultivation at 37° C.): 12.5 µg/mL | MIC (μg/mL) E. coli BL21 (E. coli BL21; [1]): 12.5 µg/mL

PRT1416 (IEICAADCGGHGVCVGGTCRCEDGWMGAACDQ; listed as Homo sapiens)
MIC against C. diversus (Citrobacter diversus; Citrobacter diversus, 10 h cultivation at 37° C.): 12.5 µg/mL | MIC against M. catarrhalis (Moraxella catarrhalis; Moraxella catarrhalis, 10 h cultivation at 37° C.): 25 µg/mL | MIC against P. aeruginosa (Pseudomonas aeruginosa; Pseudomonas aeruginosa, 10 h cultivation at 37° C.): 25 µg/mL | MIC against E. cloacae (Enterobacter cloacae; Enterobacter cloacae, 10 h cultivation at 37° C.): 25 µg/mL | MIC against A. hydrophila (Aeromonas hydrophila; Aeromonas hydrophila, 10 h cultivation at 37° C.): 25 µg/mL | MIC (E. coli DH5α): 25 µg/mL | MIC against S. marcescens (Serratia marcescens; Serratia marcescens, 10 h cultivation at 37° C.): 12.5 µg/mL | MIC against P. mirabilis (Proteus mirabilis; Proteus mirabilis, 10 h cultivation at 37° C.): 12.5 µg/mL | MIC against P. vulgaris (Proteus vulgaris; Proteus vulgaris, 10 h cultivation at 37° C.): 25 µg/mL | MIC against K. pneumonia (Klebsiella pneumonia; Klebsiella pneumonia, 10 h cultivation at 37° C.): 50 µg/mL | MIC against E. coli BL21 (E. coli BL21; [1]): 12.5 µg/mL

PRT1262 (DVDECSMSNGSCDQGCVNTKGSYECVCPPGRRLHWNGKDCV; listed as Homo sapiens)
MIC against C. diversus (Citrobacter diversus; [2]): 12.5 µg/mL | MIC against M. catarrhalis (Moraxella catarrhalis; [3]): 50 µg/mL | MIC against P. aeruginosa (Pseudomonas aeruginosa; [4]): 12.5 µg/mL | MIC against E. cloacae (Enterobacter cloacae; [5]): 12.5 µg/mL | MIC against A. hydrophila (Aeromonas hydrophila; [6]): 50 µg/mL | MIC (E. coli DH5α): 12.5 µg/mL | MIC against S. marcescens (Serratia marcescens; [7]): 25 µg/mL | MIC against P. mirabilis (Proteus mirabilis; [8]): 12.5 µg/mL | MIC against P. vulgaris (Proteus vulgaris; [9]): 50 µg/mL | MIC against K. pneumonia (Klebsiella pneumonia; [10]): 25 µg/mL | MIC against E. coli BL21 (E. coli BL21; [11]): 25 µg/mL

PRT1094 (GDNSCKSNPCHNGGVCHSRWDDFSCSCPALTSGKACE; listed as Homo sapiens)
MIC C. diversus (Citrobacter diversus; [12]): 12.5 µg/mL | MIC M. catarrhalis (Moraxella catarrhalis; [12]): 50 µg/mL | MIC P. aeruginosa (Pseudomonas aeruginosa; [12]): 25 µg/mL | MIC E. cloacae (Enterobacter cloacae; [12]): 25 µg/mL | MIC A. hydrophila (Aeromonas hydrophila; [12]): 50 µg/mL | MIC (E. coli DH5α): 25 µg/mL | MIC S. marcescens (Serratia marcescens; [12]): 12.5 µg/mL | MIC P. mirabilis (Proteus mirabilis; [12]): 12.5 µg/mL | MIC P. vulgaris (Proteus vulgaris; [12]): 50 µg/mL | MIC K. pneumonia (Klebsiella pneumonia; [12]): 12.5 µg/mL | MIC E. coli BL21 (E. coli BL21; [12]): 50 µg/mL

PRT1232 (IGQQCPNMCSGHGSCDHGICRCDQGYQGTECH; listed as Homo sapiens)
MIC against C. diversus (Citrobacter diversus; [2]): 25 µg/mL | MIC against M. catarrhalis (Moraxella catarrhalis; [3]): 12.5 µg/mL | MIC against P. aeruginosa (Pseudomonas aeruginosa; [4]): 25 µg/mL | MIC against E. cloacae (Enterobacter cloacae; [5]): 25 µg/mL | MIC against A. hydrophila (Aeromonas hydrophila; [6]): 50 µg/mL | MIC (E. coli DH5α): 50 µg/mL | MIC against S. marcescens (Serratia marcescens; [7]): 25 µg/mL | MIC against P. mirabilis (Proteus mirabilis; [8]): 25 µg/mL | MIC against P. vulgaris (Proteus vulgaris; [9]): 50 µg/mL | MIC against K. pneumonia (Klebsiella pneumonia; [10]): 12.5 µg/mL | MIC against E. coli BL21 (E. coli BL21; [11]): 25 µg/mL

PRT66 (DDNICLREPCENYMKCVSVLRFDSSAPFLSSTTVLFRPIHPINGLRCRCPPGFTGDYCE; listed as Homo sapiens)
MIC (μg/mL) C. diversus (Citrobacter diversus; [2]): 25 µg/mL | MIC (μg/mL) M. catarrhalis (Moraxella catarrhalis; [3]): 12.5 µg/mL | MIC (μg/mL) P. aeruginosa (Pseudomonas aeruginosa; [4]): 12.5 µg/mL | MIC (μg/mL) E. cloacae (Enterobacter cloacae; [5]): 12.5 µg/mL | MIC (μg/mL) A. hydrophila (Aeromonas hydrophila; [6]): 12.5 µg/mL | MIC (E. coli DH5α): 12.5 µg/mL | MIC (μg/mL) S. marcescens (Serratia marcescens; [7]): 25 µg/mL | MIC (μg/mL) P. mirabilis (Proteus mirabilis; [8]): 25 µg/mL | MIC (μg/mL) P. vulgaris (Proteus vulgaris; [9]): 12.5 µg/mL | MIC (μg/mL) K. pneumonia (Klebsiella pneumonia; [10]): 12.5 µg/mL | MIC (μg/mL) E. coli BL21 (E. coli BL21; [11]): 12.5 µg/mL

PRT453 (DINECEQFGTCPQHCRNTKGSYECVCADGFT; listed as Homo sapiens)
MIC against C. diversus (Citrobacter diversus; 96-well plate, 37° C., 10 h): 25 µg/mL | MIC against M. catarrhalis (Moraxella catarrhalis; 96-well plate, 37° C., 10 h): 50 µg/mL | MIC against P. aeruginosa (Pseudomonas aeruginosa; 96-well plate, 37° C., 10 h): 25 µg/mL | MIC against E. cloacae (Enterobacter cloacae; 96-well plate, 37° C., 10 h): 25 µg/mL | MIC against A. hydrophila (Aeromonas hydrophila; 96-well plate, 37° C., 10 h): 12.5 µg/mL | MIC (E. coli DH5α): 25 µg/mL | MIC against S. marcescens (Serratia marcescens; 96-well plate, 37° C., 10 h): 25 µg/mL | MIC against P. mirabilis (Proteus mirabilis; 96-well plate, 37° C., 10 h): 25 µg/mL | MIC against P. vulgaris (Proteus vulgaris; 96-well plate, 37° C., 10 h): 12.5 µg/mL | MIC against K. pneumonia (Klebsiella pneumonia; 96-well plate, 37° C., 10 h): 50 µg/mL | MIC against E. coli BL21 (E. coli BL21; 96-well plate, 37° C., 10 h): 12.5 µg/mL

Reference: US9833497B2, “Human originated EGF domain proteins and use of the same” (CHENGDU SOURCEBIO LIMITED-LIABILITY COMPANY, priority 2013, dated 2017)
